# Values of other authors as cited in US20100113583A1, “COMBINATION THERAPIES FOR THE TREATMENT OF OBESITY” (priority 2008, published 2010).
# Experiments:
# [1] = for weight loss of body weight for drug compared with placebo: literature studies
SMILES,clinically significant side effect / limitation of clinical use,weight loss of body weight for drug compared with placebo [1],efficacy in clinical use ([1]; clinical use as weight loss drug)
CC(C)CC(N(C)C)C1(c2ccc(Cl)cc2)CCC1 (stereo not drawn) [sibutramine],can cause hypertension,about 5%,–
CC(C)(N)Cc1ccccc1 [phentermine],–,about 5%,limited efficacy
CCNC(C)Cc1cccc(C(F)(F)F)c1 (stereo not drawn) [fenfluramine],caused heart-valve complications,–,–
CCN[C@@H](C)Cc1cccc(C(F)(F)F)c1 [dexfenfluramine],suspected heart valvulopathy,about 5%,–
CCCCCCCCCCC[C@@H](C[C@@H]1OC(=O)[C@H]1CCCCCC)OC(=O)[C@H](CC(C)C)NC=O [orlistat],GI side effects,about 5%,–
